These results are taken from BindingDB's records for doi:10.1021/jm049771u (Bar-Ilan University, 2004).

For the test, the target named is P2Y purinoceptor 1 (Rattus norvegicus, UniProt P49651). Nature of the test: Concentration required for calcium mobilization at rat purinergic 2Y1 receptor expressed in HEK 293 cells.
Chain of P2Y purinoceptor 1 (P49651 whole entry): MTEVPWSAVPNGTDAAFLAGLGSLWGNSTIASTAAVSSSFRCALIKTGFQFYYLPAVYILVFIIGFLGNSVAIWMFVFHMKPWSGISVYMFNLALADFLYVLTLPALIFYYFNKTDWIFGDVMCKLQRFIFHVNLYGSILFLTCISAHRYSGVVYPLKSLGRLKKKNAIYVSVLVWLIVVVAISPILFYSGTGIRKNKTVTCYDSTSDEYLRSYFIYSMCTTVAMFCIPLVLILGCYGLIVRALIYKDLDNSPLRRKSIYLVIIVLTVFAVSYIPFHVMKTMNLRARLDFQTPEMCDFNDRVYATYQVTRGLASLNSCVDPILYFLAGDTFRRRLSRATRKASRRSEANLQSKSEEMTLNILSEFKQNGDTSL

As for `B[PH](O)(OC[C@H]1OC(n2cnc3c(N)nc(Cl)nc32)[C@H](O)[C@@H]1O)OP(=O)(O)OP(=O)(O)O` (stereo partly specified), the EC50 was 4.5 nM.
